From ChEMBL document CHEMBL3098126, “Identification through structure-based methods of a bacterial NAD(+)-dependent DNA ligase inhibitor that avoids known resistance mutations” (Bioorg Med Chem Lett, 2014)
In brackets after ≈: the same amount, converted by molar mass.

Columns and labels:
[1] = Inhibition of Haemophilus influenzae LigA
DNA ligase = DNA ligase (Staphylococcus aureus, UniProt Q9AIU7); assay: Inhibition of Staphylococcus aureus LigA
[2] = Inhibition of Enterococcus faecalis LigA
[3] = Inhibition of wild type Streptococcus pneumoniae LigA
Streptococcus pneumoniae [4] = assay: Selectivity ratio of IC50 for Streptococcus pneumoniae LigA L75F mutant to IC50 for wild type Streptococcus pneumoniae LigA
Streptococcus pneumoniae [5] = assay: Antibacterial activity against Streptococcus pneumoniae ARC548; format: functional
[6] = Inhibition of Streptococcus pneumoniae LigA L75F mutant

SMILES | IC50 [1] [µM] | IC50 (DNA ligase) [µM] | IC50 [2] [µM] | IC50 [3] [µM] | Ratio IC50 (Streptococcus pneumoniae [4]) | MIC (Streptococcus pneumoniae [5]) [µg/mL] | IC50 [6] [µM]
NC(=O)c1cnc(N)c2cc(Br)sc12 | 160 | 48 | 77 | 21 | 2 | > 64 | 48
NC(=O)c1cc2c(N)ncc(C(N)=O)c2s1 | > 200 | 15 | 34 | 9.4 | – | – | –
Cc1c(Br)sc2c(C(N)=O)cnc(N)c12 | > 200 | 7.1 | 8.1 | 3.1 | – | – | 37
NC(=O)c1cnc(N)c2c(-c3ccn[nH]3)csc12 | > 200 | > 200 | > 200 | 100 | – | – | –
Nc1nc(OC2CCCC2)nc2c1ncn2[C@@H]1O[C@H](CO)[C@@H](O)[C@H]1O | 0.51 | 0.43 | – | 0.21 | – | 8 (≈ 22.8 µM) | 33
NC(=O)c1cnc(Nc2ccccc2)c2cc(Br)sc12 | 160 | 150 | 160 | > 200 | – | – | –
CCOC(=O)c1cc2c(N)ncc(C(N)=O)c2s1 | > 200 | 8.9 | 74 | 9.4 | – | – | –
NC(=O)c1cnc(NCCO)c2cc(Br)sc12 | > 200 | > 200 | > 200 | > 200 | – | – | –
NC(=O)c1cnc(N)c2cc(-c3ccn[nH]3)sc12 | > 200 | 36 | 100 | 29 | – | – | –
CCNC(=O)c1cc2c(N)ncc(C(N)=O)c2s1 | > 200 | 75 | > 200 | 140 | – | – | –
CCCNc1ncc(C(N)=O)c2sc(Br)cc12 | 200 | 180 | 130 | 150 | – | – | –

Now from value to compound, other results behind:

IC50 [1] [µM] | IC50 (DNA ligase) [µM] | IC50 [2] [µM] | IC50 [3] [µM] | SMILES | Ratio IC50 (Streptococcus pneumoniae [4]) | MIC (Streptococcus pneumoniae [5]) [µg/mL] | IC50 [6] [µM]
> 200 | > 200 | > 200 | 200 | Cc1cc2c(N)ncc(C(N)=O)c2s1 | – | – | –
> 200 | > 200 | > 200 | 25 | NC(=O)c1cnc(N)c2ccsc12 | – | – | –
> 200 | 69 | > 200 | 52 | NC(=O)c1cnc(N)c2c(C(N)=O)csc12 | – | – | –
> 200 | 39 | 130 | 36 | NC(=O)c1cnc(N)c2c(Br)csc12 | – | – | –
> 200 | > 200 | > 200 | > 140 | Cc1csc2c(C(N)=O)cnc(N)c12 | – | – | –
